Laboratory results as given in ChEMBL document CHEMBL3885861, “Open TG-GATES”.

Organism: Rattus norvegicus
Assay: Open TG-GATES - Regimen: Single
Assay type: toxicity, organism-based, Sprague-Dawley
Design: regimen Single, gender Male, age 6 weeks
Settings: in vivo, ip, 0.3 mg/kg, route intraperitoneal injection, dose 300 ug/Kg, dose level High; for APTT / Bas / Eos / Fbg / Hb / Ht / Lym / MCH / MCHC / MCV / Mono / Neu / PT / Plat / RBC / Ret / WBC: tissue Blood; for KIDNEY_L / KIDNEY_R / KIDNEY_TOTAL: tissue Kidney; for LIVER: tissue Liver; for A/G / ALP / ALT / AST / BUN / CRE / Ca / Cl / DBIL / GLC / IP / K / LDH / Na / PL / RALB / TBIL / TC / TG / TP / gamma-GTP: tissue Plasma

**Q.** Which results are given for `CC(=O)N[C@H]1[C@@H](O[C@@H]2O[C@H](CC(O)[C@H]3O[C@@H](n4ccc(=O)[nH]c4=O)[C@H](O)[C@@H]3O)[C@H](O)[C@H](O)[C@H]2NC(=O)/C=C/CC(C)C)O[C@H](CO)[C@@H](N)[C@@H]1O` (some centres not stated) [TUNICAMYCIN]?
**A.** TERMINAL_BW (3 h): 222.1 g; APTT (3 h): 21.6 s; Bas (3 h): 0%; Eos (3 h): 0.4%; Fbg (3 h): 288.4 mg/dL; Hb (3 h): 13.1 g/dL; Ht (3 h): 40.3%; Lym (3 h): 80.8%; MCH (3 h): 20.8 pg; MCHC (3 h): 32.5%; MCV (3 h): 64 fL; Mono (3 h): 3%; Neu (3 h): 14.6%; PT (3 h): 15.5 s; Plat (3 h): 108.9 x10_4/uL; RBC (3 h): 630.4 x10_4/ul; Ret (3 h): 8%; WBC (3 h): 89.8 x10_2/uL; KIDNEY_L (3 h): 1 g; KIDNEY_R (3 h): 1 g; KIDNEY_TOTAL (3 h): 2 g; LIVER (3 h): 10.1 g; A/G (3 h): 1.2; ALP (3 h): 1378 IU/L; ALT (3 h): 38.4 IU/L; AST (3 h): 70.6 IU/L; BUN (3 h): 13.6 mg/dL; CRE (3 h): 0.1 mg/dL; Ca (3 h): 10.9 mg/dL; Cl (3 h): 106.6 meq/L; DBIL (3 h): 0 mg/dL; GLC (3 h): 167.8 mg/dL; IP (3 h): 8.4 mg/dL; K (3 h): 4.4 meq/L; LDH (3 h): 154 IU/L; Na (3 h): 140.4 meq/L; PL (3 h): 127.4 mg/dL; RALB (3 h): 2.9 g/dL; TBIL (3 h): 0.016 mg/dL; TC (3 h): 68.6 mg/dL; TG (3 h): 71 mg/dL; TP (3 h): 5.3 g/dL; gamma-GTP (3 h): 1.4 IU/L; TERMINAL_BW (6 h): 219.8 g; APTT (6 h): 21.5 s; Bas (6 h): 0%; Eos (6 h): 0.8%; Fbg (6 h): 309.6 mg/dL; Hb (6 h): 13.3 g/dL; Ht (6 h): 41%; Lym (6 h): 70.8%; MCH (6 h): 20.8 pg; MCHC (6 h): 32.5%; MCV (6 h): 64 fL; Mono (6 h): 3.2%; Neu (6 h): 24.2%; PT (6 h): 15.9 s; Plat (6 h): 118.2 x10_4/uL; RBC (6 h): 640.4 x10_4/ul; Ret (6 h): 7.6%; WBC (6 h): 84.7 x10_2/uL; KIDNEY_L (6 h): 1 g; KIDNEY_R (6 h): 1 g; KIDNEY_TOTAL (6 h): 1.9 g; LIVER (6 h): 9.1 g; A/G (6 h): 1.2; ALP (6 h): 1426.6 IU/L; ALT (6 h): 41.4 IU/L; AST (6 h): 73.6 IU/L; BUN (6 h): 12.6 mg/dL; CRE (6 h): 0.1 mg/dL; Ca (6 h): 10.7 mg/dL; Cl (6 h): 107 meq/L; DBIL (6 h): 0.002 mg/dL; GLC (6 h): 173.8 mg/dL; IP (6 h): 9.1 mg/dL; K (6 h): 4.5 meq/L; LDH (6 h): 175.8 IU/L; Na (6 h): 141 meq/L; PL (6 h): 125 mg/dL; RALB (6 h): 2.9 g/dL; TBIL (6 h): 0.012 mg/dL; TC (6 h): 71 mg/dL; TG (6 h): 50.4 mg/dL; TP (6 h): 5.4 g/dL; gamma-GTP (6 h): 1.2 IU/L; TERMINAL_BW (9 h): 212.4 g; APTT (9 h): 20.8 s; Bas (9 h): 0%; Eos (9 h): 0.4%; Fbg (9 h): 307 mg/dL; Hb (9 h): 13.5 g/dL; Ht (9 h): 41.4%; Lym (9 h): 73.8%; MCH (9 h): 20.9 pg; MCHC (9 h): 32.7%; MCV (9 h): 63.7 fL; Mono (9 h): 2.8%; Neu (9 h): 21.4%; PT (9 h): 16.4 s; Plat (9 h): 121.3 x10_4/uL; RBC (9 h): 649.2 x10_4/ul; Ret (9 h): 7.1%; WBC (9 h): 84 x10_2/uL; KIDNEY_L (9 h): 1 g; KIDNEY_R (9 h): 1 g; KIDNEY_TOTAL (9 h): 1.9 g; LIVER (9 h): 8.8 g; A/G (9 h): 1.2; ALP (9 h): 1397.6 IU/L; ALT (9 h): 43.4 IU/L; AST (9 h): 86.6 IU/L; BUN (9 h): 17.4 mg/dL; CRE (9 h): 0.1 mg/dL; Ca (9 h): 10.5 mg/dL; Cl (9 h): 107.4 meq/L; DBIL (9 h): 0 mg/dL; GLC (9 h): 164.8 mg/dL; IP (9 h): 9.4 mg/dL; K (9 h): 4.4 meq/L; LDH (9 h): 185.6 IU/L; Na (9 h): 140.8 meq/L; PL (9 h): 114.8 mg/dL; RALB (9 h): 3 g/dL; TBIL (9 h): 0.018 mg/dL; TC (9 h): 68.2 mg/dL; TG (9 h): 22.2 mg/dL; TP (9 h): 5.4 g/dL; gamma-GTP (9 h): 1 IU/L; TERMINAL_BW (24 h): 228.7 g; APTT (24 h): 23.4 s; Bas (24 h): 0%; Eos (24 h): 1.2%; Fbg (24 h): 288 mg/dL; Hb (24 h): 13.2 g/dL; Ht (24 h): 41%; Lym (24 h): 76.2%; MCH (24 h): 20.1 pg; MCHC (24 h): 32.2%; MCV (24 h): 62.4 fL; Mono (24 h): 3.6%; Neu (24 h): 18.4%; PT (24 h): 16.5 s; Plat (24 h): 122.4 x10_4/uL; RBC (24 h): 658.2 x10_4/ul; Ret (24 h): 7.2%; WBC (24 h): 97.7 x10_2/uL; KIDNEY_L (24 h): 1 g; KIDNEY_R (24 h): 1 g; KIDNEY_TOTAL (24 h): 1.9 g; LIVER (24 h): 10.8 g; A/G (24 h): 1.3; ALP (24 h): 1621.2 IU/L; ALT (24 h): 55 IU/L; AST (24 h): 86.6 IU/L; BUN (24 h): 14.8 mg/dL; CRE (24 h): 0.2 mg/dL; Ca (24 h): 10.4 mg/dL; Cl (24 h): 106.4 meq/L; DBIL (24 h): 0 mg/dL; GLC (24 h): 174.4 mg/dL; IP (24 h): 7.5 mg/dL; K (24 h): 4.5 meq/L; LDH (24 h): 181.4 IU/L; Na (24 h): 141.2 meq/L; PL (24 h): 120.8 mg/dL; RALB (24 h): 3 g/dL; TBIL (24 h): 0.012 mg/dL; TC (24 h): 58.4 mg/dL; TG (24 h): 70.8 mg/dL; TP (24 h): 5.3 g/dL; gamma-GTP (24 h): 1.6 IU/L
